From ChEMBL document CHEMBL1124209, “Phosphonoformate and phosphonoacetate derivatives of 5-substituted 2'-deoxyuridines: synthesis and antiviral activity” (1988)
In brackets after ≈: the same amount, converted by molar mass.

Legend:
Format in all cases: functional
Human alphaherpesvirus 1 [1] = test: Minimum inhibitory concentration causing 25% inhibition cytopathic effect induced by Herpes simplex virus-1 (Brand) in HEp-2 cells
Human alphaherpesvirus 2 [2] = test: Minimum inhibitory concentration causing 25% inhibition cytopathic effect induced by Herpes simplex virus(HSV) -2 (thymidine kinase deficient) in vero cells
Human alphaherpesvirus 1 [3] = test: Minimum inhibitory concentration causing 25% inhibition of cytopathic effect induced by Herpes simplex virus-1 (K979) in HEp-2 cells
Human alphaherpesvirus 1 [4] = test: Mean survival time in HSV-1 infected mice, after intraperitoneal administration of 0.5 mg/kg of compound
Oryctolagus cuniculus [5] = species on record: Oryctolagus cuniculus; test: Minimum cytotoxic concentration causing toxic effects on uninfected cells in rabbit
Mus musculus [6] = test: Mean duration of lesions in HSV-1 infected mice, after administration of 0.1 % of compound intracutaneously
Mus musculus [7] = test: Cumulative lesions in HSV-1 infected mice, after administration of 0.1 % of compound intracutaneously
Human alphaherpesvirus 2 [8] = test: Minimum inhibitory concentration of compound causing 50% inhibition of cytopathic effect induced by HSV-2 in PRK cells
Human alphaherpesvirus 1 [9] = test: Minimum inhibitory concentration causing 25% inhibition of cytopathic effect induced by Herpes simplex virus-1 (Brand) in vero cells
Human alphaherpesvirus 1 [10] = test: Minimum inhibitory concentration causing 25% inhibition of cytopathic effect induced by herpes simplex virus (HSV)-1 (K979) in vero cells.
Mus musculus [11] = test: Mean duration of lesions in HSV-1 infected mice, after administration of 0.3 % of compound intracutaneously
Human alphaherpesvirus 2 [12] = test: Minimum inhibitory concentration causing 25% inhibition of cytopathic effect induced by Herpes simplex virus(HSV) -2 (thymidine kinase deficient) in HEp-2 cells
Human alphaherpesvirus 1 [13] = test: Minimum inhibitory concentration causing 25% inhibition cytopathic effect induced by Herpes simplex virus(HSV) -1 (thymidine kinase deficient) in HEp-2 cells
Human alphaherpesvirus 1 [14] = test: Minimum inhibitory concentration of compound causing 50% inhibition of cytopathic effect induced by HSV-1 in PRK cells
Human alphaherpesvirus 1 [15] = test: Cumulative mortality in percent of HSV-1 infected mice, after intraperitoneal administration of 0.5 mg/kg of compound
Mus musculus [16] = test: Cumulative lesions in HSV-1 infected mice, after administration of 0.3 % of compound intracutaneously
Human alphaherpesvirus 1 [17] = test: Minimum inhibitory concentration causing 25% inhibition of cytopathic effect induced by Herpes simplex virus(HSV) -1 (thymidine kinase deficient) in vero cells
Human alphaherpesvirus 1 [18] = test: Mean survival time in HSV-1 infected mice, after peroral administration of 5 mg/kg of compound; conditions: route oral
Human alphaherpesvirus 1 [19] = test: Minimum inhibitory concentration of compound causing 50% inhibition of cytopathic effect induced by HSV-1(thymidine kinase deficient) in PRK cells
Oryctolagus cuniculus [20] = species on record: Oryctolagus cuniculus; test: Minimum cytotoxic concentration of compound causing toxic effects on uninfected cells
Human alphaherpesvirus 1 [21] = test: Cumulative mortality in percent of HSV-1 infected mice, after peroral administration of 5 mg/kg of compound; conditions: route oral
Mus musculus [22] = test: Cumulative mortality in percent of HSV-1 (KOS strain) infected mice, after peroral administration of 100 mg/kg of compound; conditions: route oral
Human alphaherpesvirus 1 [23] = test: (§1) Minimum inhibitory concentration causing 50% inhibition of cytopathic effect induced by HSV-2 in PRK cells
Human alphaherpesvirus 1 [24] = test: Minimum inhibitory concentration causing 50% inhibition of cytopathic effect induced by HSV-1(thymidine kinase deficient) in PRK cells
Human alphaherpesvirus 1 [25] = test: Minimum inhibitory concentration causing 50% inhibition of cytopathic effect induced by HSV-1 in PRK cells
Mus musculus [26] = test: Cumulative mortality in percent of HSV-1 infected mice, after peroral administration of 100 mg/kg of compound; conditions: route oral
Human alphaherpesvirus 2 [27] = test: as §1
Human alphaherpesvirus 1 [28] = test: Minimum inhibitory concentration causing 50% inhibition of cytopathic effect induced by HSV-1 (thymidine kinase deficient) in PRK cells
Human alphaherpesvirus 1 [29] = test: Minimum inhibitory concentration causing 25% inhibition of cytopathic effect induced by Herpes simplex virus(HSV) -1 (thymidine kinase deficient) in HEp-2 cells
Human alphaherpesvirus 1 [30] = test: Minimum inhibitory concentration causing 25% inhibition of cytopathic effect induced by Herpes simplex virus(HSV) -1 (Brand) in HEp-2 cells
Human alphaherpesvirus 2 [31] = test: Minimum inhibitory concentration causing 25% inhibition of cytopathic effect induced by Herpes simplex virus(HSV) -2 (thymidine kinase deficient) in vero cells
Mus musculus [32] = test: Mean survival time in HSV-1 infected mice, after intraperitoneal administration of 25 mg/kg
Mus musculus [33] = test: Cumulative mortality in percent of HSV-1 infected mice, after intraperitoneal administration of 25 mg/kg
Mus musculus [34] = test: Mean survival time in HSV-1 infected mice, after peroral administration of 100 mg/kg; conditions: route oral
Human alphaherpesvirus 2 [35] = test: Minimum inhibitory concentration causing 25% inhibition cytopathic effect induced by Herpes simplex virus(HSV) -2 (thymidine kinase deficient) in HEp -2 cells
Human alphaherpesvirus 1 [36] = test: Minimum inhibitory concentration of compound causing 50% inhibition of cytopathic effect induced by HSV-1 (thymidine kinase deficient) in PRK cells

| Structure (SMILES) | MIC (Human alphaherpesvirus 1 [1]) | MIC (Human alphaherpesvirus 1 [3]) | MTC (Oryctolagus cuniculus [5]) | MIC (Human alphaherpesvirus 1 [9]) | MIC (Human alphaherpesvirus 1 [10]) | MIC (Human alphaherpesvirus 2 [12]) | MIC (Human alphaherpesvirus 1 [17]) | MTC (Oryctolagus cuniculus [20]) | MIC (Human alphaherpesvirus 1 [24]) | MIC (Human alphaherpesvirus 1 [25]) | CMP (Mus musculus [26]) | MIC (Human alphaherpesvirus 2 [27]) | MIC (Human alphaherpesvirus 1 [29]) | MIC (Human alphaherpesvirus 2 [31]) | further results |
| --- | --- | --- | --- | --- | --- | --- | --- | --- | --- | --- | --- | --- | --- | --- | --- |
| O=c1[nH]c(=O)n([C@H]2C[C@H](O)[C@@H](CO)O2)cc1CCCl | 0.1 µM (≈ 0.0291 µg/mL) | 10.2 µM (≈ 2.97 µg/mL) | 1127 µM | 0.03 µM (≈ 0.00872 µg/mL) | 102 µM (≈ 29.7 µg/mL) | > 342 µM | 34.2 µM (≈ 9.94 µg/mL) | >1366 µM |  |  |  |  |  |  | MIC (Human alphaherpesvirus 2 [2]): > 342 µM; MST (Human alphaherpesvirus 1 [4]): 16.7 days; MDL (Mus musculus [6]): 2.4 days; lesions (Mus musculus [7]): 40; MIC (Human alphaherpesvirus 2 [8]): 34.2 µM (≈ 9.94 µg/mL); MDL (Mus musculus [11]): 0.9 days; MIC (Human alphaherpesvirus 1 [13]): > 342 µM; MIC (Human alphaherpesvirus 1 [14]): 0.3 µM (≈ 0.0872 µg/mL); CMP (Human alphaherpesvirus 1 [15]): 35; lesions (Mus musculus [16]): 17; MST (Human alphaherpesvirus 1 [18]): 19 days; MIC (Human alphaherpesvirus 1 [19]): > 1370 µM; CMP (Human alphaherpesvirus 1 [21]): 10 |
| CCOC(=O)CP(=O)(O)OC[C@H]1O[C@@H](n2cc(/C=C/Br)c(=O)[nH]c2=O)C[C@@H]1O |  |  | >=828 uM |  |  |  |  |  | > 828 µM | 41.4 µM (≈ 20 µg/mL) |  |  |  |  | CMP (Mus musculus [22]): 80; MIC (Human alphaherpesvirus 1 [23]): > 828 µM |
| CCOC(=O)P(=O)(O)OC[C@H]1O[C@@H](n2cc(/C=C\Br)c(=O)[nH]c2=O)C[C@@H]1O |  |  | >=81.1 uM |  |  |  |  |  | > 81.1 µM | 4.1 µM (≈ 1.92 µg/mL) | 70 | > 81.1 µM |  |  |  |
| COC(=O)P(=O)(O)OC[C@H]1O[C@@H](n2cc(/C=C\Br)c(=O)[nH]c2=O)C[C@@H]1O |  |  | >=87.9 uM |  |  |  |  |  |  | 1.5 µM (≈ 0.683 µg/mL) |  | > 87.9 µM |  |  | CMP (Mus musculus [22]): 50; MIC (Human alphaherpesvirus 1 [28]): > 87.9 µM |
| COP(=O)(CC(=O)OC[C@H]1O[C@@H](n2cc(I)c(=O)[nH]c2=O)C[C@@H]1O)OC |  | 198 µM (≈ 99.8 µg/mL) | 655 µM | 0.6 µM (≈ 0.303 µg/mL) | 5.9 µM (≈ 2.97 µg/mL) |  | 2 µM (≈ 1.01 µg/mL) |  |  |  |  |  | > 198 µM | 59.5 µM (≈ 30 µg/mL) | MIC (Human alphaherpesvirus 1 [30]): 0.2 µM (≈ 0.101 µg/mL) |
| Nc1nc2c(ncn2COCCO)c(=O)[nH]1 [ACYCLOVIR] | 4.4 µM (≈ 0.991 µg/mL) | 13.2 µM (≈ 2.97 µg/mL) | 440 µM | 0.01 µM (≈ 0.00225 µg/mL) | 1.3 µM (≈ 0.293 µg/mL) | 440 µM (≈ 99.1 µg/mL) | 44 µM (≈ 9.91 µg/mL) |  |  |  | 10 |  | 440 µM (≈ 99.1 µg/mL) | 132 µM (≈ 29.7 µg/mL) | MST (Mus musculus [32]): 18.6 days; CMP (Mus musculus [33]): 15; MST (Mus musculus [34]): 18.9 days |
| O=c1[nH]c(=O)n([C@H]2C[C@H](O)[C@@H](CO)O2)cc1/C=C/Br [BRIVUDINE] |  |  | >1302 µM |  |  |  |  |  | 1300 µM (≈ 434 µg/mL) | 0.07 µM (≈ 0.0233 µg/mL) | 30 | 32.6 µM (≈ 10.9 µg/mL) |  |  |  |
| O=C(O)P(=O)(O)O [FOSCARNET] | 794 µM (≈ 100 µg/mL) | 238 µM (≈ 30 µg/mL) | 2.619 µM | 238 µM (≈ 30 µg/mL) | 238 µM (≈ 30 µg/mL) |  | 79.4 µM (≈ 10 µg/mL) | >3174 µM |  | 238 µM (≈ 30 µg/mL) |  | 159 µM (≈ 20 µg/mL) | 794 µM (≈ 100 µg/mL) | 79.4 µM (≈ 10 µg/mL) | MIC (Human alphaherpesvirus 2 [35]): 238 µM (≈ 30 µg/mL); MIC (Human alphaherpesvirus 1 [28]): 317 µM (≈ 39.9 µg/mL) |
| O=C(O)CP(=O)(O)O [FOSFONET] | 214 µM (≈ 30 µg/mL) | 71.4 µM (≈ 10 µg/mL) | 2.356 µM | 71.4 µM (≈ 10 µg/mL) | 71.4 µM (≈ 10 µg/mL) | 214 µM (≈ 30 µg/mL) | 71.4 µM (≈ 10 µg/mL) | >2856 µM |  |  |  |  | 214 µM (≈ 30 µg/mL) | 71.4 µM (≈ 10 µg/mL) | MIC (Human alphaherpesvirus 1 [36]): 286 µM (≈ 40 µg/mL); MIC (Human alphaherpesvirus 2 [8]): 143 µM (≈ 20 µg/mL); MIC (Human alphaherpesvirus 1 [14]): 286 µM (≈ 40 µg/mL) |
